Where two headings read alike, the source gives them in different places.
Assays:
Format in all cases: cell-based
[1] = tested on: U373 glioblastoma cells; assay: MTT cytotoxicity assay, U373 glioblastoma (brain tumor) cells; settings: Homo sapiens, U373 MG, 24-36 hours at 37° C.
Description: (§1) Cytotoxicity of various compounds against tumor cells was performed using the MTT (3-[4,5-dimethylthiazol-2-yl]-2,5-diphenyl tetrazolium bromide) assay (Boehringer Mannheim Corp., Indianapolis, Ind.). Unless otherwise specified, all cell lines were obtained from the American Type Culture Collection (ATCC). Briefly, exponentially growing cells were seeded into a 96-well plate at a density of 2.5×10^4 cells/well and incubated for 36 hours at 37° C. prior to drug exposure. On the day of treatment, culture medium was carefully aspirated from the wells and replaced with fresh medium containing WHI-P239 at concentrations ranging from 0.1 to 250 μM. Triplicate wells were used for each treatment.
(§2) Human leukemic cell lines (NALM-6, MOLT-3), human breast tumor cells (BT20), prostate cancer cells (PC3), and glioblastoma cells (U373) were obtained from the American Type Culture Collection and maintained as a continuous cell line in Dulbecco's modified Eagles's medium supplemented with 10% fetal bovine serum and antibiotics.
(§3) The cells were incubated with the various compounds for 24-36 hours at 37° C. in a humidified 5% CO2 atmosphere. To each well, 10 μl of MTT (0.5 mg/ml final concentration) was added and the plates were incubated at 37° C. for 4 hours to allow MTT to form formazan crystals by reacting with metabolically active cells. The formazan crystals were solubilized overnight at 37° C. in a solution containing 10% SDS in 0.01 M HCl. The absorbence of each well was measured in a microplate reader (Labsystems) at 540 nm and a reference wavelength of […]. To translate the OD540 values into the number of live cells in each well, the OD540 values were compared to those on standard OD540 -versus-cell number curves generated for each cell line. The percent survival was calculated using the formula shown below. [formula]

[2] = tested on: NALM-6 leukemia cells; assay: MTT cytotoxicity assay, NALM-6 leukemia cells; settings: Homo sapiens, 24-36 hours at 37° C.
Description: as §1, §2, §3

[3] = tested on: PC-3 prostate cancer cells; assay: MTT cytotoxicity assay, PC-3 prostate cancer cells; settings: 24-36 hours at 37° C.
Description: as §1, §2, §3

[4] = tested on: BT-20 breast cancer cells; assay: MTT cytotoxicity assay, BT-20 breast cancer cells; settings: Homo sapiens, 24-36 hours at 37° C.
Description: as §1, §2, §3

With Oc1ccc(Nc2nc(Nc3ccc(O)cc3)nc(Nc3ccc(O)cc3)n2)cc1 [WHI-P199, 2,4,6-Tri(4'-hydroxylphenyl)-amino-1,3,5-triazine] the IC50 [1] was > 250 µM, the IC50 ([2]; read-out: IC50 NALM-6 Leukemia) was > 250 µM and the IC50 [3] was 221 µM. For the same molecule, the IC50 [4] was 240 µM.

With Oc1c(Br)cc(Nc2nc(Nc3cc(Br)c(O)c(Br)c3)nc(Nc3cc(Br)c(O)c(Br)c3)n2)cc1Br [WHI-P200, 2,4,6-Tri(3',5'-dibromo-4'-hydroxylphenyl)-amino-1,3,5-triazine] the IC50 [1] was > 250 µM, the IC50 ([2]; read-out: IC50 NALM-6 Leukemia) was 10.1 µM and the IC50 [3] was 64.5 µM. For the same molecule, the IC50 [4] was 27.1 µM.

With Oc1ccccc1Nc1nc(Nc2ccccc2O)nc(Nc2ccccc2O)n1 [WHI-P205, 2,4,6-Tri(2'-hydroxylphenyl)-amino-1,3,5-triazine] the IC50 [1] was 224 µM, the IC50 ([2]; read-out: IC50 NALM-6 Leukemia) was 21.5 µM and the IC50 [3] was 102 µM. For the same molecule, the IC50 [4] was 108 µM.

Brc1cccc(Nc2nc(Nc3cccc(Br)c3)nc(Nc3cccc(Br)c3)n2)c1 [WHI-P206, 2,4,6-Tri(3'-bromophenyl)-amino-1,3,5-triazine] was tested, and the IC50 [1] was > 250 µM, the IC50 ([2]; read-out: IC50 NALM-6 Leukemia) was > 250 µM and the IC50 [3] was > 250 µM. For the same molecule, the IC50 [4] was > 250 µM.

Oc1cccc(Nc2nc(Nc3cccc(O)c3)nc(Nc3cccc(O)c3)n2)c1 [WHI-P233, 2,4,6-Tri(3'-hydroxylphenyl)-amino-1,3,5-triazine] gave an IC50 [1] of 104 µM, an IC50 ([2]; read-out: IC50 NALM-6 Leukemia) of 5.1 µM and an IC50 ([2]; leukemia cells, read-out: IC50 antileukemic potency (unit printed EM)) of 5.1 µM. For the same molecule, the IC50 [3] was 45.1 µM and the IC50 [4] was 66.1 µM.

With Oc1c(Cl)cc(Nc2nc(Nc3cc(Cl)c(O)c(Cl)c3)nc(Nc3cc(Cl)c(O)c(Cl)c3)n2)cc1Cl [WHI-P239, 2,4,6-Tri(3',5'-dichloro-4'-hydroxylphenyl)-amino-1,3,5-triazine] the IC50 [1] was 155 µM, the IC50 ([2]; read-out: IC50 NALM-6 Leukemia) was 9.8 µM and the IC50 [3] was 31.5 µM. For the same molecule, the IC50 [4] was 13.2 µM.

Source: patent US6262053A, “Melamine derivatives as potent anti-cancer agents” (Parker Hughes Institute, priority 1999, dated 2001)
